# Measurements published in publication PMC10614160 (Journal of medicinal chemistry, 2023).
# Test system: OVSAHO cells
# Assay: cell viability of OVSAHO cells
# Assay type: cell-based
# Conditions: for effect of combining the drug with 1 on inhibiting OVSAHO cells: compared with 1 alone; for 24 h cytotoxicity against OVSAHO: drug alone
Compound,"effect of combining the drug with 1 on inhibiting OVSAHO cells (combined with 1 (20 μM), 24 h)",other results
Cn1ncnc1[C@H]1c2n[nH]c(=O)c3cc(F)cc(c23)N[C@@H]1c1ccc(F)cc1 [talazoparib],No inhibition enhancement,
"CC(C)C[C@H](NC(=O)[C@H](Cc1ccccc1)NC(=O)c1cnccn1)B(O)O [BTZ, bortezomib]",No inhibition enhancement,
O=C(C1CC1)N1CCN(Cn2sc3ccccc3c2=O)CC1 [LOC14],No inhibition enhancement,
COC(=O)[C@@]1(O)C[C@H]2O[C@]1(C)n1c3ccccc3c3c4c(c5c6ccccc6n2c5c31)C(=O)NC4 [K252A],slightly enhances,
CC(C)(C)c1ccc(S(=O)(=O)/C=C/C#N)cc1 [BAY11–7085],slightly enhances,
N.N.[Cl][Pt][Cl] [cisplatin],slightly enhances,
PACMA31,No inhibition enhancement,
COc1cccc2c1C(=O)c1c(O)c3c(c(O)c1C2=O)C[C@@](O)(C(=O)CO)C[C@@H]3O[C@H]1C[C@H](N)[C@H](O)[C@H](C)O1 [doxorubicin],,"cell viability of OVSAHO treated with 1 combined with the drug (combined with 1 (20 μM), 24 h): ~20%; 24 h cytotoxicity against OVSAHO (1.25 μM): around 75%; 24 h cytotoxicity against OVSAHO (2.5 μM): around 75%; 24 h cytotoxicity against OVSAHO (5 μM): around 75%"
CC(=O)O[C@H]1C(=O)[C@@]2(C)[C@H]([C@H](OC(=O)c3ccccc3)[C@]3(O)C[C@H](OC(=O)[C@H](O)[C@@H](NC(=O)c4ccccc4)c4ccccc4)C(C)=C1C3(C)C)[C@]1(OC(C)=O)CO[C@@H]1C[C@@H]2O [paclitaxel],No inhibition enhancement,
